ChEMBL document CHEMBL1201862, “PubChem BioAssay data set” (2004)
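Dose response: 5 concentrations. Exposure: 48 h. Format: 96-well plates. Endpoint: linear interpolation; highest concentration if not reached. Here, GI50 denotes the concentration required for 50% inhibition of growth.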 The source made the active and inactive calls. Rule as the data show it: active = GI50 up to about 1.1 µM and inactive = higher.

Tests used:
Test in all cases: NCI-60 cell line screen, 48 h
[1] = tested on: A498
[2] = tested on: ACHN
[3] = tested on: BT-549
[4] = tested on: EKVX
[5] = tested on: HCT-116
[6] = tested on: HOP-62
[7] = tested on: K562
[8] = tested on: MDA-MB-435
[9] = tested on: MOLT-4
[10] = tested on: NCI-H522
[11] = tested on: NCI/ADR-RES
[12] = tested on: OVCAR-4
[13] = tested on: RXF 393
[14] = tested on: SF-295
[15] = tested on: SK-MEL-5
[16] = tested on: SK-OV-3
[17] = tested on: UACC-257
[18] = tested on: HCC 2998
[19] = tested on: TK-10

SMILES | GI50 [1] | GI50 [2] | GI50 [3] | GI50 [4] | GI50 [5] | GI50 [6] | GI50 [7] | GI50 [8] | GI50 [9] | GI50 [10] | GI50 [11] | GI50 [12] | GI50 [13] | GI50 [14] | GI50 [15] | GI50 [16] | GI50 [17] | GI50 [18] | GI50 [19]
CC1OC(OC2C(O[C@@H]3C[C@@H]4CC[C@@H]5[C@H](CC[C@]6(C)[C@@H]7[C@H](C[C@@H]56)O[C@]5(CC[C@@H](C)CO5)[C@H]7C)[C@@]4(C)C[C@H]3O)OC(CO)C(OC3OC(CO)C(O)C(O)C3O)C2O)C(O)C(O)C1O (some centres not stated) | 1.71 µM (inactive) | 1.79 µM (inactive) | 2.23 µM (inactive) | 1.51 µM (inactive) | 3.78 µM (inactive) | 1.83 µM (inactive) | 5.92 µM (inactive) | 1.78 µM (inactive) | 1.96 µM (inactive) | 1.1 µM (active) | 1.67 µM (inactive) | 2.06 µM (inactive) | 2.01 µM (inactive) | 1.56 µM (inactive) | 1.55 µM (inactive) | 1.69 µM (inactive) | 1.87 µM (inactive) |  | 
CN1CCN(C(=S)N(C(=O)c2cccs2)c2ccccc2)CC1 |  | > 100 µM (inactive) | > 100 µM (inactive) |  |  |  | > 100 µM (inactive) | > 100 µM (inactive) | > 100 µM (inactive) | > 100 µM (inactive) |  | > 100 µM (inactive) | > 100 µM (inactive) | > 10 µM (inactive) | > 100 µM (inactive) |  | > 100 µM (inactive) | > 100 µM (inactive) | > 100 µM (inactive)
COc1ccc(O)c(/C=N/CCC/N=C/c2cc(OC)ccc2O)c1 | 8.91 µM (inactive) | 24.7 µM (inactive) | 23.1 µM (inactive) | 20.2 µM (inactive) | 40.8 µM (inactive) | 52.1 µM (inactive) | 10.9 µM (inactive) | 22.6 µM (inactive) | 16.6 µM (inactive) | 46 µM (inactive) |  | 21.8 µM (inactive) | 25.6 µM (inactive) | 18.1 µM (inactive) |  |  | 23.7 µM (inactive) |  | 34.9 µM (inactive)
CO/C(=N\N=C\c1cccc(Cl)c1)c1ccncc1 |  | > 10 µM (inactive) | > 10 µM (inactive) | > 10 µM (inactive) | > 10 µM (inactive) | > 10 µM (inactive) | > 10 µM (inactive) | > 10 µM (inactive) | > 10 µM (inactive) | > 10 µM (inactive) | > 10 µM (inactive) | > 10 µM (inactive) | > 10 µM (inactive) | > 10 µM (inactive) |  |  | > 10 µM (inactive) | > 10 µM (inactive) | > 10 µM (inactive)
CCC1CC(=O)N(SCC(N)C(=O)O)C1=O (configuration not stated) | > 100 µM (inactive) | > 100 µM (inactive) | > 100 µM (inactive) | > 100 µM (inactive) | > 100 µM (inactive) | > 100 µM (inactive) | > 100 µM (inactive) | > 100 µM (inactive) |  | > 100 µM (inactive) | > 100 µM (inactive) | > 100 µM (inactive) | > 100 µM (inactive) | > 100 µM (inactive) | > 100 µM (inactive) | > 100 µM (inactive) | > 100 µM (inactive) |  | > 100 µM (inactive)
O=C(CN1c2ccccc2Sc2ccccc21)n1cnc2ccccc21 | 45.3 µM (inactive) | > 100 µM (inactive) | > 100 µM (inactive) | > 100 µM (inactive) | > 100 µM (inactive) | > 100 µM (inactive) | 99.5 µM (inactive) | > 100 µM (inactive) | 51.4 µM (inactive) |  | 97.5 µM (inactive) | 69 µM (inactive) | > 100 µM (inactive) | > 100 µM (inactive) | 56.9 µM (inactive) | 47.1 µM (inactive) | > 100 µM (inactive) |  | > 100 µM (inactive)
Cc1cc(Cl)ccc1NC(=O)/C(CC(=O)CC(c1ccccc1)c1c(O)c2ccccc2oc1=O)=N\O (configuration not stated) |  | > 100 µM (inactive) | > 100 µM (inactive) | > 100 µM (inactive) | > 100 µM (inactive) | > 100 µM (inactive) |  | > 100 µM (inactive) | > 100 µM (inactive) | > 100 µM (inactive) | > 100 µM (inactive) | > 100 µM (inactive) | > 100 µM (inactive) | > 100 µM (inactive) | > 100 µM (inactive) | > 100 µM (inactive) | > 100 µM (inactive) | > 100 µM (inactive) | > 100 µM (inactive)
O=c1n(CCCN2CCN(c3cccc(Cl)c3)CC2)nc2n1-c1ccc3ccccc3c1SC2 | > 100 µM (inactive) |  | > 100 µM (inactive) | 99.3 µM (inactive) | 9.46 µM (inactive) | > 100 µM (inactive) | > 100 µM (inactive) | > 100 µM (inactive) | 7.93 µM (inactive) | > 100 µM (inactive) | > 100 µM (inactive) | > 100 µM (inactive) | > 100 µM (inactive) | > 100 µM (inactive) | 6.01 µM (inactive) | > 100 µM (inactive) | > 100 µM (inactive) |  | > 100 µM (inactive)
COc1ccc(C2N(c3ccc(F)cc3)C(=O)N3C(c4ccc(OC)cc4)N(c4ccc(F)cc4)C(=O)N23)cc1 (configuration not stated) | > 100 µM (inactive) | > 100 µM (inactive) | > 100 µM (inactive) | > 100 µM (inactive) | > 100 µM (inactive) | > 100 µM (inactive) |  | > 100 µM (inactive) |  | > 100 µM (inactive) | > 100 µM (inactive) | > 100 µM (inactive) | > 100 µM (inactive) | > 100 µM (inactive) | > 100 µM (inactive) |  | > 100 µM (inactive) |  | > 100 µM (inactive)
C=C(COC(=O)C(C)C)[C@H]1Oc2ccc(C(C)=O)cc2[C@@H]1OC(=O)C(C)C |  | > 100 µM (inactive) | > 100 µM (inactive) | > 100 µM (inactive) | > 100 µM (inactive) | > 100 µM (inactive) | > 100 µM (inactive) | > 100 µM (inactive) | > 100 µM (inactive) |  |  | > 100 µM (inactive) | > 100 µM (inactive) | > 100 µM (inactive) | > 100 µM (inactive) | > 100 µM (inactive) | > 100 µM (inactive) | > 100 µM (inactive) | > 100 µM (inactive)
CCN(CC)CCC(=O)NC1c2ccc(Cl)cc2Oc2c(C)cccc21 (configuration not stated) |  |  | 13.9 µM (inactive) | 13.4 µM (inactive) | 16.3 µM (inactive) | > 10 µM (inactive) | 18.5 µM (inactive) | 15.1 µM (inactive) | 18.6 µM (inactive) | 17.1 µM (inactive) | 16.8 µM (inactive) | 14.3 µM (inactive) |  | 18.6 µM (inactive) | 13.3 µM (inactive) | 17.6 µM (inactive) | 17.1 µM (inactive) | 24.2 µM (inactive) | 14.6 µM (inactive)
CC(C)(C)OC(=O)NCCC(N)=S | > 100 µM (inactive) | > 100 µM (inactive) | > 100 µM (inactive) | > 100 µM (inactive) | > 100 µM (inactive) | > 100 µM (inactive) | > 100 µM (inactive) | > 100 µM (inactive) | > 100 µM (inactive) |  | > 100 µM (inactive) |  | > 100 µM (inactive) | > 100 µM (inactive) | > 100 µM (inactive) | > 100 µM (inactive) | > 100 µM (inactive) |  | > 100 µM (inactive)
Cc1ccc(/N=N/c2c(O)c(C(=O)O)cc3ccccc23)c(S(=O)(=O)O)c1 | > 100 µM (inactive) | > 100 µM (inactive) | > 100 µM (inactive) | > 100 µM (inactive) | > 100 µM (inactive) | > 100 µM (inactive) | > 100 µM (inactive) | > 100 µM (inactive) | > 100 µM (inactive) | > 100 µM (inactive) | > 100 µM (inactive) | > 100 µM (inactive) | > 100 µM (inactive) | > 100 µM (inactive) | > 100 µM (inactive) | > 100 µM (inactive) | > 100 µM (inactive) |  | > 100 µM (inactive)
O=C1NN=C(c2c[nH]c3ccccc23)CC1NCc1ccccc1 (configuration not stated) | > 100 µM (inactive) | > 100 µM (inactive) | > 100 µM (inactive) |  | > 100 µM (inactive) | > 100 µM (inactive) | > 100 µM (inactive) | > 100 µM (inactive) | > 100 µM (inactive) | > 100 µM (inactive) | > 100 µM (inactive) |  | > 100 µM (inactive) | > 100 µM (inactive) | > 100 µM (inactive) | > 100 µM (inactive) | > 100 µM (inactive) |  | > 100 µM (inactive)
O=P(O)(O)CN1CCNCCN(CP(=O)(O)O)CCN(CP(=O)(O)O)CCNCC1 | 93.5 µM (inactive) | > 100 µM (inactive) | > 100 µM (inactive) | > 100 µM (inactive) | 54600 µM (inactive) | > 100 µM (inactive) | > 100 µM (inactive) | > 100 µM (inactive) | > 100 µM (inactive) | > 100 µM (inactive) | > 100 µM (inactive) | > 100 µM (inactive) | > 100000 µM (inactive) | > 100 µM (inactive) | 77300 µM (inactive) | > 100 µM (inactive) | > 100 µM (inactive) |  | > 100 µM (inactive)
Cc1ccc(SCN2CCCCC2)cc1.O=C(Cl)c1ccc([N+](=O)[O-])cc1 | 2.76 µM (inactive) | 12.6 µM (inactive) | 1.9 µM (inactive) | 11.8 µM (inactive) | 10.9 µM (inactive) | 16.2 µM (inactive) | 13.8 µM (inactive) | 10.1 µM (inactive) | 3.37 µM (inactive) | 1.92 µM (inactive) | 14 µM (inactive) | 12.4 µM (inactive) | 6.15 µM (inactive) | 16 µM (inactive) | 2.78 µM (inactive) | 12.9 µM (inactive) | 14.6 µM (inactive) |  | 19.4 µM (inactive)
